Measurements reported in patent US6342508B1, “N-hydroxy-2-(Alkyl,Aryl or Heteroaryl sulfanyl, sulfinyl or sulfonyl) 3-substituted alkyl, aryl or heteroarylamides as matrix metalloproteinase inhibitors” (American Cyanamid Company, priority 1997, dated 2002).
pIC50: −log10 of the molar value. Where a name gives a salt, the structure may show the parent alone.

Target: T1, TACE (Homo sapiens, UniProt P78536)
T1 construct: purchased Immunex
Experiment: Procedure for Measuring TACE Inhibition (fluorescent peptidyl substrate)
Format: biochemical
Details: 1 mM
Experimental: Using 96-well black microtiter plates, each well recieves a solution composed of 10 μL TACE (Immunex, final concentration 1 μg/mL), 70 μL Tris buffer, pH 7.4 containing 10% glycerol (final concentration 10 mM), and 10 μL of test compound solution in DMSO (final concentration, DMSO concentration <1%) and incubated for 10 minutes at room temperature. The reaction is initiated by addition of a fluorescent peptidyl substrate (final concentration 100 μM) to each well and then shaking on a shaker for 5 sec. The reaction is read (excitation 340 nm, emission 420 nm) for 10 min. and the increase in fluorescence over time is plotted as a linear line. The slope of the line is calculated and represents the reaction rate. […] The mean (x±sem) of the control rate is calculated and compared for statistical significance (p<0.05) with drug-treated rates using Dunnett's multiple comparison test.

T1 sequence (P78536 215-824): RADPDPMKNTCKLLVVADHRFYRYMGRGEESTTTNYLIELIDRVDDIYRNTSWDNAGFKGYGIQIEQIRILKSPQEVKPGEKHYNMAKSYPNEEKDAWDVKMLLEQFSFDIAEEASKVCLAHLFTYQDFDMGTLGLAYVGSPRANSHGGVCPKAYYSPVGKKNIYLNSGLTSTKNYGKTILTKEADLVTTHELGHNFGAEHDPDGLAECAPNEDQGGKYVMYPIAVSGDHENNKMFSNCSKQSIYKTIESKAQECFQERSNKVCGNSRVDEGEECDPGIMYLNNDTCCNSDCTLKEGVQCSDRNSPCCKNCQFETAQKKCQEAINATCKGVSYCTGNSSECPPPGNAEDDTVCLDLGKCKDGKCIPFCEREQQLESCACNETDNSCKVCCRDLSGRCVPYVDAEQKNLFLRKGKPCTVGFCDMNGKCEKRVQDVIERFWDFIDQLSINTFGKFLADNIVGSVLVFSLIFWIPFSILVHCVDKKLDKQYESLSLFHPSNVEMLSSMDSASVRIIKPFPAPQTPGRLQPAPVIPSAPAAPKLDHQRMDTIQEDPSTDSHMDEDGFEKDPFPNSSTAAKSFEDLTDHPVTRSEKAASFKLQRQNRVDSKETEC

Row | Compound | TACE % inhibition at 1 mM [%]
1 | CCCCCCC(Sc1ccc(OCCN2CCNCC2)cc1)C(=O)NO (stereo not drawn) [Example 201, 2-[4-(2-Piperazine-1-yl-ethoxy)-benzenesulfanyl]-octanoic acid hydroxyamide] | 50.9
2 | CCCCCCC(Sc1ccc(OCCCC)cc1)C(=O)NO (stereo not drawn) [Example 200, 2-(4-Butoxy-benzenesulfanyl)-octanoic acid hydroxyamide] | 37.9
3 | 3-(1-Hydroxycarbamoyl-heptylsulfinyl)-benzoicacid hydroxyamide [Example 188] | 16.2
4 | CCCCCCC(Sc1ccc(NS(=O)(=O)CC)cc1)C(=O)NO (stereo not drawn) [Example 234, Ethanesulfonic acid 4(1-hydroxycarbamoyl-heptylsulfanyl)-hydroxyamide] | 18.4

Same assay, conditions: read-out: TACE IC 50

Row | Compound | pIC50
5 | COc1ccc(S(=O)(=O)C(CC=C(C)C)(Cc2ccc(OCCN3CCOCC3)cc2)C(=O)NO)cc1 (stereo not drawn) [Example 24, 2-(4-Methoxy-benzenesulfonyl)-5-methyl-2-[4-(2-morpholin-4-yl-ethoxy)-benzyl]-hex-4-enoic acid hydroxyamide] | 7.32

Same assay, conditions: solid phase compounds table

Row | Compound | pIC50
6 | CCCCCCC(C(=O)NO)S(=O)(=O)c1ccc(OS(=O)(=O)c2ccccc2[N+](=O)[O-])cc1 (stereo not drawn) [Example 238, 2-Nitro-benzenesulfonic acid 4-(1-hydroxycarbamoyl-heptylsulfonyl)-hydroxyamide] | 6.03

System: not given
Experiment: not given
Details: not given

Row | Compound | melting point [°C]
7 | COc1ccc(S(=O)(=O)C(C)(Cc2ccc3ccccc3c2)C(=O)NO)cc1 (stereo not drawn) [Example 52, N-hydroxy-2-(4-methoxy-benzenesulfonyl)-2-methyl-3-naphthalen-2-yl-propionamide] | 185 to 187
8 | COc1ccc([S+]([O-])C(C)(CC=C(C)C)C(=O)NO)cc1 (stereo not drawn) [Example 6, 2-(4-Methoxy-benzenesulfinyl)-2,5-dimethyl-hex-4-enoic acid hydroxyamide] | 108
9 | COc1ccc(SC(C(=O)NO)C(C)C)cc1 (stereo not drawn) [Example 4, N-Hydroxy-2-(4methoxy-phenylsulfanyl)-3-methyl-butyramide] | 119
10 | COc1ccc(S(=O)(=O)C2(C(=O)NO)CCN(CCc3ccccc3)CC2)cc1 (as salt: HCl) [Example 103, 4-(4-methoxy-benzenesulfonyl)-1-(2-phenyl-ethyl)-piperidine-4-carboxylic acid hydroxyamide] | 205
11 | COc1ccc(S(=O)(=O)C(C)(Cc2ccc(Br)cc2)C(=O)NO)cc1 (stereo not drawn) [Example 51, 3-(4-Bromo-phenyl)-N-hydroxy-2-(4-methoxy-benzenesulfonyl)-2-methyl-propionamide] | 86 to 88
12 | COc1ccc(S(=O)(=O)C(C)(Cc2ccc3ncccc3c2)C(=O)NO)cc1 (stereo not drawn) [Example 67, N-Hydroxy-2-(4-methoxy-benzensulfonyl)-2-methyl-3-quinolin-6-yl-propionamide] | 206
13 | CCCCCC#CCC(CC#CCCCCC)(C(=O)NO)S(=O)(=O)c1ccc(OC)cc1 [Example 71, 2-(4-methoxy-benzenesulfonyl)-2-oct-2-ynyl-dec-4-ynoic acid hydroxyamide] | 83 to 84
14 | CCCCCCCCCCCCC(C(=O)NO)S(=O)(=O)c1ccc(OC)cc1 (stereo not drawn) [Example 11, 2-(4-Methoxy-benzenesulfonyl)-tetradecanoic hydroxyamide] | 114
15 | CCCC(Cc1ccc(OCCN2CCCCCC2)cc1)(C(=O)NO)S(=O)(=O)c1ccc(OC)cc1 (stereo not drawn) [Example 19, 2-[4-(2-Azepan-1-yl-ethoxy)-benzyl]-2-(4-methoxy-benzenesulfonyl)-pentanoic acid hydroxyamide] | 85
16 | COc1ccc([S+]([O-])C(C(=O)NO)C(C)C)cc1 (stereo not drawn) [Example 7, N-Hydroxy-2-(4-methoxy-benzenesulfinyl)-3-methyl-butyramide] | 163
17 | COc1ccc(CN2CCC(C(=O)NO)(S(=O)(=O)c3ccc(OC)cc3)CC2)cc1 (as salt: HCl) [Example 101, 4-(4-methoxy-benzenesulfonyl)-1-(4-methoxy-benzyl)-piperidine-4-carboxylic acid hydroxyamide] | 175
18 | CCCCOc1ccc(S(=O)(=O)C2(C(=O)NO)CCN(Cc3ccc(OC)cc3)CC2)cc1 (as salt: HCl) [Example 104, 4-(4-n-Butoxy-benzenesulfonyl)-1-(4-methoxy-benzyl)-piperidine-4-carboxylic acid hydroxyamide] | 173
19 | COc1ccc(S(=O)(=O)C(C)(Cc2ccc(OCCN3CCOCC3)cc2)C(=O)NO)cc1 (stereo not drawn) (as salt: hydrochloride) [Example 82, 2-(4-methoxy-benzenesulfonyl)-2-methyl-3-[4-(2-mopholinyl-ethoxy)-phenyl]-propionic hydroxyamide hydrochloride] | 98
20 | COc1ccc(S(=O)(=O)C2(C(=O)NO)CCCC2)cc1 [Example 54, 1-(4-Methoxy-benzenesulfonyl)-cyclopentanecarboxylic acid hydroxyamide] | 89 to 91
21 | COc1ccc(S(=O)(=O)C(C)(Cc2ccc(-c3ccccc3)cc2)C(=O)NO)cc1 (stereo not drawn) [Example 14, 3-(Biphenyl-4-yl)-N-hydroxy-2-(4-methoxy-benzenesulfonyl)-2-methyl-propionamide] | 177
22 | CCN1CCC(C(=O)NO)(S(=O)(=O)c2ccc(OC)cc2)CC1 [Example 95, 1-Ethyl-4-(4-methoxy-benzenesulfonyl)-piperidine-4-carboxylic acid hydroxyamide] | 85
23 | COc1ccc(S(=O)(=O)C2(C(=O)NO)CCN(CCCOc3ccccc3)CC2)cc1 [Example 105, 4-(4-Methoxy-benzenesulfonyl)-1-(3-phenoxy-propyl)-piperidine-4-carboxylic acid hydroxyamide] | 101

Row | Compound | melting point [°C]
24 | CCCCCC#CCC(Cc1cccnc1)(C(=O)NO)S(=O)(=O)c1ccc(OC)cc1 (stereo not drawn) (as salt: salt) [Example 74, 2-(4-Methoxy-benzenesulfonyl)-2-pyridin-3-ylmethyl-dec-4-ynoic acid hydroxyamide] | 65
25 | CCCCN1CCC(C(=O)NO)(S(=O)(=O)c2ccc(OC)cc2)CC1 [Example 93, 1-Butyl-4-(4-methoxy-benzenesulfonyl)-piperidine-4-carboxylic acid hydroxyamide] | 75
26 | CCCCOc1ccc(S(=O)(=O)C2(C(=O)NO)CCN(Cc3ccccc3)CC2)cc1 [Example 98, 1-Benzyl-4-(4-butoxy-benzenesulfonyl)-piperidine-4-carboxylic acid hydroxyamide] | 144
27 | COc1ccc(S(=O)(=O)C(C)(Cc2ccccc2Br)C(=O)NO)cc1 (stereo not drawn) [Example 55, 3-(2-Bromo-phenyl)-N-hydroxy-2-(4-methoxy-benzenesulfonyl)-2-methyl-propionamide] | 93 to 96
28 | COc1ccc(S(=O)(=O)C(CC=C(C)C)(CC=C(C)C)C(=O)NO)cc1 [Example 79, 2-(4-Methoxy-benzenesulfonyl)-5-methyl-2-(3-methyl-but-2-enyl)-hex-4-enoic acid hydroxyamide] | 93 to 96
29 | COc1ccc(S(=O)(=O)C(CC=C(C)C)(Cc2cccnc2)C(=O)NO)cc1 (stereo not drawn) [Example 63, 2-(4-Methoxy-benzenesulfonyl)-5-methyl-2-pyridin-3-ylmethyl-hex-4-enoic acid hydroxyamide] | 89 to 92
30 | CCCCOc1ccc(S(=O)(=O)C2(C(=O)NO)CCN(CCCOc3ccccc3)CC2)cc1 [Example 106, 4-(4-n-Butoxy-benzenesulfonyl)-1-(3-phenoxy-propyl)-piperidine-4-carboxylic acid hydroxyamide] | 84
31 | CCCCCCCCC(Cc1cccnc1)(C(=O)NO)S(=O)(=O)c1ccc(OC)cc1 (stereo not drawn) [Example 62, 2-(4-Methoxy-benzenesulfonyl)-2-pyridin-3-ylmethyl-decanoic acid hydroxyamide] | 62
32 | CCCCCCC(Sc1ccc(F)cc1)C(=O)NO (stereo not drawn) [Example 38, 2-(4-Fluoro-phenylsulfanyl)-octanoic acid hydroxyamide] | 58
33 | C#CCC(CC#C)(C(=O)NO)S(=O)(=O)c1ccc(OC)cc1 [Example 73, 2-(4-Methoxy-benzenesulfonyl)-2-prop-2-ynyl-pent-4-ynoic acid hydroxyamide] | 156
34 | CCC(Cc1ccc(OCCN2CCOCC2)cc1)(C(=O)NO)S(=O)(=O)c1ccc(OC)cc1 (stereo not drawn) [Example 33, N-Hydroxy-2-(4-methoxy-benzenesulfonyl)-2-[4-(2-morpholin-4yl-ethoxy)-benzyl]-butyramide] | 51
35 | CCN(CC)CCOc1ccc(CC(C)(C(=O)NO)S(=O)(=O)c2ccc(OC)cc2)cc1 (stereo not drawn) (as salt: HCl) [Example 21, N-Hydroxy-2-(4-methoxy-benzenesulfonyl)-2-methyl-3-[4-(2-N,N-diethylamino-ethoxy)-phenyl]-propionamide] | 56 to 59
36 | COc1ccc(S(=O)(=O)C(CCC(C)C)(Cc2cccnc2)C(=O)NO)cc1 (stereo not drawn) (as salt: HCl) [Example 69, 2-(4-Methoxy-benzenesulfonyl)-5-methyl-2-pyridin-3-ylmethyl-hexanoic acid hydroxyamide] | 62
37 | CCCCC(C(=O)NO)S(=O)(=O)c1ccc(OC)cc1 (stereo not drawn) [Example 10, 2-(4-Methoxy-benzenesulfonyl)-hexanoic acid hydroxyamide] | 130
38 | COc1ccc(S(=O)(=O)C2(C(=O)NO)CCN(C)CC2)cc1 [Example 97, 1-Methyl-4-(4-methoxy-benzenesulfonyl)-piperidine-4-carboxylic acid hydroxyamide] | 89
39 | COc1ccc(S(=O)(=O)C(C)(Cc2ccc(OCCN3CCCCCC3)cc2)C(=O)NO)cc1 (stereo not drawn) [Example 18] | 68
